Assay results as given in ChEMBL document CHEMBL3608265, “Synthesis and inhibitory activity of substrate-analog fructosyl peptide oxidase inhibitors” (Bioorg Med Chem Lett, 2015).
Active and inactive are the calls of the source. The calls are words filed in the database; no cut-off is given here.

Columns and labels:
[1] = Inhibition of Coniochaeta sp. FPOX-C CFP-T7 mutant using Fru-ValHis as substrate by Dixon plot analysis
Coniochaeta [2] = assay: Competitive inhibition of Coniochaeta sp. FPOX-C CFP-T7 mutant using Fru-ValHis as substrate at 5 to 25 uM by Lineweaver-Burk plot analysis
Coniochaeta [3] = assay: Competitive inhibition of Coniochaeta sp. FPOX-C CFP-T7 mutant using Fru-ValHis as substrate at 250 to 1250 uM by Lineweaver-Burk plot analysis
Coniochaeta [4] = assay: Competitive inhibition of Coniochaeta sp. FPOX-C CFP-T7 mutant using Fru-ValHis as substrate at 20 to 100 uM by Lineweaver-Burk plot analysis

Row | Ki [1] [µM] | inhibition (Coniochaeta [2]) | inhibition (Coniochaeta [3]) | inhibition (Coniochaeta [4]) | Structure (SMILES)
1 | 11.1 | Active | – | – | CC(C)[C@H](SC[C@@]1(O)OC[C@@H](O)[C@@H](O)[C@@H]1O)C(=O)O
2 | 782 | – | Active | – | N[C@@H](CCCCSC[C@@]1(O)OC[C@@H](O)[C@@H](O)[C@@H]1O)C(=O)O
3 | 66.8 | – | – | Active | CC(C)[C@H](SC[C@@]1(O)OC[C@@H](O)[C@@H](O)[C@@H]1O)C(=O)N[C@@H](Cc1c[nH]cn1)C(=O)O
